The target in the assay is T1, Adrenergic β2 (Homo sapiens, UniProt P07550).
T1 construct: Adherent H292 cells were removed from tissue culture flasks; endogenous in cells; host or cells: H292 cells
As to the kind of experiment: Adrenergic β2 mediated cAMP production in H292 cells (AlphaScreen cAMP detection). As to conditions: Intrinsic Activity, fraction relative to the maximum activity determined for formoterol. It is filed as cell-based. In a few lines:
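H292 cells, 5000/well, preincubated 10 min with rolipram (final 300 μM, 1.6% DMSO) in HEPES pH 7.4 HBSS, then compound 60 min at room temperature. Lysate cAMP quantified by AlphaScreen against a cAMP standard curve. pEC50 and intrinsic activity (fraction of formoterol maximum) from four-parameter logistic fits.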
On the technique in general: Changes in cAMP serve as a functional read-out for many G protein-coupled receptors.

Counter-ions that a name gives are not always drawn.

T1 sequence (P07550 whole entry): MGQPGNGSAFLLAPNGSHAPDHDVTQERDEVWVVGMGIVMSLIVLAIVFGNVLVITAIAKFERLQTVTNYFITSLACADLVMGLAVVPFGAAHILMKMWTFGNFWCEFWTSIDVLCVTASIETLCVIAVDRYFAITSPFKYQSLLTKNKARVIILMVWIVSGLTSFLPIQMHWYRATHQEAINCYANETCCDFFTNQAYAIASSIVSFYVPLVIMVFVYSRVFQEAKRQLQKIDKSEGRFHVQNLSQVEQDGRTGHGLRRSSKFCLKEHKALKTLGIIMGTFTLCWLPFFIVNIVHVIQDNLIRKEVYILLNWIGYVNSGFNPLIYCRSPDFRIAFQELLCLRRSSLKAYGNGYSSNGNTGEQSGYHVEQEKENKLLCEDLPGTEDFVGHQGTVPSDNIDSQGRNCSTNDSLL

Consider `O=C(CCNCCc1ccc(Cl)cc1)N(CCNCCc1ccc(O)c2[nH]c(=O)sc12)C1CCCCC1` [Example 13, N^3-[2-(4-Chlorophenyl)ethyl]-N-cyclohexyl-N-(2-{[2-(4-hydroxy-2-oxo-2,3-dihydro-1,3-benzothiazol-7-yl)ethyl]amino}ethyl)-β-alaninamide bis-trifluoroacetic acid salt], for which the “β2 Int Act” value is recorded as 0.71.

Take `O=C(CCNCCc1ccccc1Cl)N(CCNCCc1ccc(O)c2[nH]c(=O)sc12)C1CCC(F)(F)CC1` [Example 46, N^3-[2-(2-Chlorophenyl)ethyl]-N^1-(4,4-difluorocyclohexyl)-N^1-(2-{[2-(4-hydroxy-2-oxo-2,3-dihydro-1,3-benzothiazol-7-yl)ethyl]amino}ethyl)-β-alaninamide bis-trifluoroacetic acid salt]: the “β2 Int Act” value is 0.78.

Turning to `O=C(CCNCCc1cccc(F)c1)N(CCNCCc1ccc(O)c2[nH]c(=O)sc12)C1CCCCC1` [Example 96, N-Cyclohexyl-N^3-[2-(3-fluorophenyl)ethyl]-N-(2-{[2-(4-hydroxy-2-oxo-2,3-dihydro-1,3-benzothiazol-7-yl)ethyl]amino}ethyl)-β-alaninamide dihydrobromide salt], the “β2 Int Act” value came to 0.85.

Turning to `CCCC[C@H](C)N(CCNCCc1ccc(O)c2[nH]c(=O)sc12)C(=O)CCNCCc1ccccc1` [Example 102, N-(2-{[2-(4-Hydroxy-2-oxo-2,3-dihydro-1,3-benzothiazol-7-yl)ethyl]amino}ethyl)-N-[(1S)-1-methylpentyl]-N^3-(2-phenylethyl)-β-alaninamide bis-trifluoroacetic acid salt], the “β2 Int Act” value turned out to be 0.23.

As to `O=C(CCNCCc1ccccc1)N(CCNCCc1ccc(O)c2[nH]c(=O)sc12)C1CCSCC1` [Example 62, N^1-(2-{[2-(4-Hydroxy-2-oxo-2,3-dihydro-1,3-benzothiazol-7-yl)ethyl]amino}ethyl)-N^3-(2-phenylethyl)-N^1-(tetrahydro-2H-thiopyran-4-yl)-β-alaninamide bis-trifluoroacetic acid salt], the “β2 Int Act” value is reported as 0.87.

Regarding `CC(CN(C(=O)CCNCCc1cccc(F)c1)C1CCCCCC1)NCCc1ccc(O)c2[nH]c(=O)sc12` (stereo not drawn) [Example 104, N-Cycloheptyl-N^3-[2-(3-fluorophenyl)ethyl]-N-(2-{[2-(4-hydroxy-2-oxo-2,3-dihydro-1,3-benzothiazol-7-yl)ethyl]amino}propyl)-β-alaninamide bis-trifluoroacetic acid salt], the “β2 Int Act” value worked out at 0.81.

As for `CC(C)(CO)CN(CCNCCc1ccc(O)c2[nH]c(=O)sc12)C(=O)CCNCCc1cccc(Cl)c1` [Example 66, N^3-[2-(3-Chlorophenyl)ethyl]-N^1-(3-hydroxy-2,2-dimethylpropyl)-N^1-(2-{[2-(4-hydroxy-2-oxo-2,3-dihydro-1,3-benzothiazol-7-yl)ethyl]amino}ethyl)-β-alaninamide bis-trifluoroacetic acid salt], the “β2 Int Act” value stood at 0.59.

Turning to `O=C(CCNCCc1cccc(F)c1)N(CCNCCc1ccc(O)c2[nH]c(=O)sc12)CC12CC3CC(CC(C3)C1)C2` [Example 60, N^1-(1-Adamantylmethyl)-N^3-[2-(3-fluorophenyl)ethyl]-N^1-(2-{[2-(4-hydroxy-2-oxo-2,3-dihydro-1,3-benzothiazol-7-yl)ethyl]amino}ethyl)-β-alaninamide bis-trifluoroacetic acid salt], the “β2 Int Act” value came out at 0.76.

On to `O=C(CCNCCc1ccccc1)N(CCNCCc1ccc(O)c2[nH]c(=O)sc12)C1CCCCCC1` [Example 98, N-Cycloheptyl-N-(2-{[2-(4-hydroxy-2-oxo-2,3-dihydro-1,3-benzothiazol-7-yl)ethyl]amino}ethyl)-N^3-(2-phenylethyl)-β-alaninamide dihydrobromide salt], for which, where the note is “dihydrobromide salt”, the “β2 Int Act” value is given as 0.8.

As for `O=C(CCNCCc1cccs1)N(CCNCCc1ccc(O)c2[nH]c(=O)sc12)C1CCCCC1` [Example 35, N-Cyclohexyl-N-(2-{[2-(4-hydroxy-2-oxo-2,3-dihydro-1,3-benzothiazol-7-yl)ethyl]amino}ethyl)-N^3-[2-(2-thienyl)ethyl]-β-alaninamide bis-trifluoroacetic acid salt], the “β2 Int Act” value is recorded as 0.91.

Take `O=C(CCNCCc1ccc2c(c1)OCO2)N(CCNCCc1ccc(O)c2[nH]c(=O)sc12)C1CCCCC1` [Example 76, N^3-[2-(1,3-Benzodioxol-5-yl)ethyl]-N^1-cyclohexyl-N^1-(2-{[2-(4-hydroxy-2-oxo-2,3-dihydro-1,3-benzothiazol-7-yl)ethyl]amino}ethyl)-β-alaninamide bis-trifluoroacetic acid salt]: the “β2 Int Act” value stood at 0.68.

On to `CC(C)(C)CN(CCNCCc1ccc(O)c2[nH]c(=O)sc12)C(=O)CCNCCc1cccc(Cl)c1` [Example 7, N^3-[2-(3-Chlorophenyl)ethyl]-N-(2,2-dimethylpropyl)-N-(2-{[2-(4-hydroxy-2-oxo-2,3-dihydro-1,3-benzothiazol-7-yl)ethyl]amino}ethyl)-β-alaninamide bis-trifluoroacetic acid salt], for which the “β2 Int Act” value stood at 0.68.

As to `O=C(CCNCCc1cccc(Cl)c1)N(CCNCCc1ccc(O)c2[nH]c(=O)sc12)C1Cc2ccccc2C1` [Example 42, N^3-[2-(3-Chlorophenyl)ethyl]-N^1-(2,3-dihydro-1H-inden-2-yl)-N^1-(2-{[2-(4-hydroxy-2-oxo-2,3-dihydro-1,3-benzothiazol-7-yl)ethyl]amino}ethyl)-β-alaninamide bis-trifluoroacetic acid salt], the “β2 Int Act” value came to 0.82.

As for `O=C(CCNCCc1ccc(F)cc1)N(CCNCCc1ccc(O)c2[nH]c(=O)sc12)CC12CC3CC(CC(C3)C1)C2` [Example 61, N^1-(1-Adamantylmethyl)-N^3-[2-(4-fluorophenyl)ethyl]-N^1-(2-{[2-(4-hydroxy-2-oxo-2,3-dihydro-1,3-benzothiazol-7-yl)ethyl]amino}ethyl)-β-alaninamide bis-trifluoroacetic acid salt], the “β2 Int Act” value is on record as 0.79.

Regarding `O=C(CCNCCc1cc(F)ccc1F)N(CCNCCc1ccc(O)c2[nH]c(=O)sc12)C1CCCCCC1` [Example 83, N^1-Cycloheptyl-N^3-[2-(2,5-difluorophenyl)ethyl]-N^1-(2-{[2-(4-hydroxy-2-oxo-2,3-dihydro-1,3-benzothiazol-7-yl)ethyl]amino}ethyl)-β-alaninamide bis-trifluoroacetic acid salt], the “β2 Int Act” value came out at 0.71.

As for `C[C@@H](CNCCC(=O)N(CCNCCc1ccc(O)c2[nH]c(=O)sc12)C1CCCCC1)c1ccccc1` [Example 20, N-Cyclohexyl-N-(2-{[2-(4-hydroxy-2-oxo-2,3-dihydro-1,3-benzothiazol-7-yl)ethyl]amino}ethyl)-N^3-[(2R)-2-phenylpropyl]-β-alaninamide bis-trifluoroacetic acid salt], the “β2 Int Act” value is 0.97.

Take `O=C(CCNCCc1cccc(F)c1)N(CCNCCc1ccc(O)c2[nH]c(=O)sc12)C1CCCCCC1` [Example 36, N-Cycloheptyl-N^3-[2-(3-fluorophenyl)ethyl]-N-(2-{[2-(4-hydroxy-2-oxo-2,3-dihydro-1,3-benzothiazol-7-yl)ethyl]amino}ethyl)-β-alaninamide bis-trifluoroacetic acid salt]: the “β2 Int Act” value was found to be 0.84.

For `O=C(CCNCCc1ccc(Cl)cc1)N(CCNCCc1ccc(O)c2[nH]c(=O)sc12)C1CCC(F)(F)CC1` [Example 48, N^3-[2-(4-Chlorophenyl)ethyl]-N^1-(4,4-difluorocyclohexyl)-N^1-(2-{[2-(4-hydroxy-2-oxo-2,3-dihydro-1,3-benzothiazol-7-yl)ethyl]amino}ethyl)-β-alaninamide bis-trifluoroacetic acid salt], the “β2 Int Act” value amounted to 0.55.

On to `O=C(CCNCCc1ccccc1Cl)N(CCNCCc1ccc(O)c2[nH]c(=O)sc12)C1CCCCC1` [Example 17, N^3-[2-(2-Chlorophenyl)ethyl]-N-cyclohexyl-N-(2-{[2-(4-hydroxy-2-oxo-2,3-dihydro-1,3-benzothiazol-7-yl)ethyl]amino}ethyl)-β-alaninamide bis-trifluoroacetic salt], for which the “β2 Int Act” value is given as 0.90.

As to `O=C(CCNCCc1nc2ccccc2[nH]1)N(CCNCCc1ccc(O)c2[nH]c(=O)sc12)C1CCCCC1` [Example 77, N^3-[2-(1H-Benzimidazol-2-yl)ethyl]-N^1-cyclohexyl-N^1-(2-{[2-(4-hydroxy-2-oxo-2,3-dihydro-1,3-benzothiazol-7-yl)ethyl]amino}ethyl)-β-alaninamide tris-trifluoroacetic acid salt], the “β2 Int Act” value is recorded as 0.54.

For `COc1ccc(CCNCCC(=O)N(CCNCCc2ccc(O)c3[nH]c(=O)sc23)C2CCCCCC2)cc1OC` [Example 86, N^1-Cycloheptyl-N^3-[2-(3,4-dimethoxyphenyl)ethyl]-N^1-(2-{[2-(4-hydroxy-2-oxo-2,3-dihydro-1,3-benzothiazol-7-yl)ethyl]amino}ethyl)-β-alaninamide bis-trifluoroacetic acid salt], the “β2 Int Act” value is given as 0.43.

Turning to `COc1cccc(CCNCCC(=O)N(CCNCCc2ccc(O)c3[nH]c(=O)sc23)CC(C)(C)C)c1` [Example 43, N^1-(2,2-Dimethylpropyl)-N^1-(2-{[2-(4-hydroxy-2-oxo-2,3-dihydro-1,3-benzothiazol-7-yl)ethyl]amino}ethyl)-N^3-[2-(3-methoxyphenyl)ethyl]-β-alaninamide bis-trifluoroacetic acid salt], the “β2 Int Act” value is listed as 0.67.

Turning to `CC(C)N(CCNCCc1ccc(O)c2[nH]c(=O)sc12)C(=O)CCNCCc1ccc(Cl)cc1` [Example 3, N^3-[2-(4-Chlorophenyl)ethyl]-N-(2-{[2-(4-hydroxy-2-oxo-2,3-dihydro-1,3-benzothiazol-7-yl)ethyl]amino}ethyl)-N-isopropyl-β-alaninamide bis-trifluoroacetic acid salt], the “β2 Int Act” value is recorded as 0.34.

The record behind these values is US7700782B2, “Compounds 569” (AstraZeneca AB, priority 2007, dated 2010).
